Experimental data as given in publication PMC6097783, “β-N-Acetylglucosaminidase MthNAG from Myceliophthora thermophila C1, a thermostable enzyme for production of N-acetylglucosamine from chitin” (Applied Microbiology and Biotechnology, 2018).

How the values were obtained:
MthNAG [1] = target: T1, MthNAG (Thermothelomyces thermophilus, UniProt G2Q2L6); assay: substrate inhibition kinetics, released GlcNAc by HPAEC; format: biochemical; conditions: citrate-phosphate buffer 0.1 M, pH 4.5, 50 °C
T1 construct: gene MYCTH_2294755; full-length GH20 secreted enzyme, 582-residue precursor with 21-residue signal peptide; homologously overexpressed in M. thermophila C1, purified by IEX and SEC, no tag told; most similar to XP_003658680 of strain ATCC 42464
T1 sequence (G2Q2L6 22-582): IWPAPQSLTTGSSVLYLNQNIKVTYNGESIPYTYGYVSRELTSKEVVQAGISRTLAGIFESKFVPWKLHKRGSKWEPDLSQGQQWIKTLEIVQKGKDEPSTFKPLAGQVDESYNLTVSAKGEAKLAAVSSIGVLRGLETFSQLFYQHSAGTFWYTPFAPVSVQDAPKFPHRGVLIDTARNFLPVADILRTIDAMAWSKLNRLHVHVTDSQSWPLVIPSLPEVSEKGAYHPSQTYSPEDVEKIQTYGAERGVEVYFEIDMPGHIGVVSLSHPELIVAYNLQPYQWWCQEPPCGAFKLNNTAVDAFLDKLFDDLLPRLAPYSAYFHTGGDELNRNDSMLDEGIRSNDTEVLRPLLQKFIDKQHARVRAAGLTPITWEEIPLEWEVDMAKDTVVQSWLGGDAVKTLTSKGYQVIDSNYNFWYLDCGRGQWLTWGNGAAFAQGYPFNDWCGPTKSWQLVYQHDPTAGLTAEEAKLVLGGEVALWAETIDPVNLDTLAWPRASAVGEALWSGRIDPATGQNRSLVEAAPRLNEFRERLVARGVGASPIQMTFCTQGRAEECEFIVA

MthNAG [2] = target: T1, MthNAG; assay: substrate inhibition kinetics, released p-nitrophenol at […] nm; format: biochemical; conditions: citrate-phosphate buffer 0.1 M, pH 4, 50 °C
purified protein = substrate: CC(=O)N[C@H]1[C@H](Oc2ccc([N+](=O)[O-])cc2)O[C@H](CO)[C@@H](O)[C@@H]1O; assay: purified protein; format: biochemical, Thermothelomyces thermophilus; conditions: citrate-phosphate buffer 0.1 M, pH 4, 50 °C

For `CC(=O)N[C@H]1[C@H](O[C@H]2[C@H](O)[C@@H](NC(C)=O)C(O)O[C@@H]2CO)O[C@H](CO)[C@@H](O)[C@@H]1O` (stereo partly shown) [(GlcNAc)2], the Ki (MthNAG [1]) was 500 ± 110 µM.

Molecule `CC(=O)N[C@H]1[C@H](Oc2ccc([N+](=O)[O-])cc2)O[C@H](CO)[C@@H](O)[C@@H]1O` [GlcNAc-pNP, 4-nitrophenyl-N-acetylglucosamine] has a Ki (MthNAG [2]) of 1960 ± 260 µM.

B1: MthNAG (Thermothelomyces thermophilus ATCC 42464) (protein)
chain: T1 sequence (G2Q2L6 22-582)
notes: full-length GH20 secreted enzyme, 582-residue precursor with 21-residue signal peptide; homologously overexpressed in M. thermophila C1, purified by IEX and SEC, no tag told; most similar to XP_003658680 of strain ATCC 42464
B1 showed a Km (purified protein) of 60 ± 10 µM and a kcat (purified protein) of 14.0 ± 0.7 s⁻¹.
